Results reported in the supplement of paper PMC8092582.
Structures can show the parent of a compound that is named as a salt. ± gives the standard deviation of the averaged measurements.

Test system: HeLa
Experiment: cell viability (CellTiter-Glo) relative to median of lowest-dilution wells of all drugs (fraction); higher = more viable cells
Protocol: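 HeLa control and CRISPR DDX11 knockout cells were seeded in 384-well plates and incubated for 72 h with each of 64 […] drugs at six concentrations. Viability was read with CellTiter-Glo and normalised to the median of the lowest (6th) dilution wells of all drugs. Two biological replicates (BR1, BR2) are averaged; the concentration unit is not stated.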

[1] = drug concentration (unit not stated): 0.04, genotype: DDX11 knockout
[2] = drug concentration (unit not stated): 0.04, genotype: control (DDX11 wild type)
[3] = drug concentration (unit not stated): 0.12, genotype: DDX11 knockout
[4] = drug concentration (unit not stated): 0.12, genotype: control (DDX11 wild type)
[5] = drug concentration (unit not stated): 0.37, genotype: DDX11 knockout
[6] = drug concentration (unit not stated): 0.37, genotype: control (DDX11 wild type)
[7] = drug concentration (unit not stated): 1.11, genotype: DDX11 knockout
[8] = drug concentration (unit not stated): 1.11, genotype: control (DDX11 wild type)
[9] = drug concentration (unit not stated): 3.33, genotype: DDX11 knockout
[10] = drug concentration (unit not stated): 3.33, genotype: control (DDX11 wild type)
[11] = drug concentration (unit not stated): 10, genotype: DDX11 knockout
[12] = drug concentration (unit not stated): 10, genotype: control (DDX11 wild type)
[13] = drug concentration (unit not stated): 0.01, genotype: DDX11 knockout
[14] = drug concentration (unit not stated): 0.01, genotype: control (DDX11 wild type)

Structure (SMILES) | cell viability [1] | cell viability [2] | cell viability [3] | cell viability [4] | cell viability [5] | cell viability [6] | cell viability [7] | cell viability [8] | cell viability [9] | cell viability [10] | cell viability [11] | cell viability [12] | cell viability [13] | cell viability [14] | cell viability (drug concentration (unit not stated): 30, genotype: DDX11 knockout) | cell viability (drug concentration (unit not stated): 30, genotype: control (DDX11 wild type))
Nc1ncn([C@H]2C[C@H](O)[C@@H](CO)O2)c(=O)n1 [Decitabine] | 1.062 ± 0.0019 | 1.0513 ± 0.0006 | 1.01 ± 0.16 | 1.06 ± 0.019 | 1.03 ± 0.12 | 1.03 ± 0.043 | 0.973 ± 0.012 | 1.05 ± 0.054 | 0.975 ± 0.099 | 1.1 ± 0.097 | 0.867 ± 0.018 | 1.11 ± 0.086 | – | – | – | –
CCc1cnn2c(NCc3ccc[n+]([O-])c3)cc(N3CCCC[C@H]3CCO)nc12 [Dinaciclib] | 0.189 ± 0.0066 | 0.232 ± 0.063 | 0.182 ± 0.011 | 0.239 ± 0.068 | 0.171 ± 0.019 | 0.264 ± 0.096 | 0.169 ± 0.0065 | 0.254 ± 0.097 | – | – | – | – | 0.119 ± 0.011 | 0.0976 ± 0.048 | – | –
COc1cccc2c1C(=O)c1c(O)c3c(c(O)c1C2=O)C[C@@](O)(C(=O)CO)C[C@@H]3O[C@H]1C[C@H](N)[C@H](O)[C@H](C)O1 [Doxorubicin (Adriamycin)] | 0.923 ± 0.087 | 0.986 ± 0.0043 | 0.75 ± 0.18 | 0.96 ± 0.41 | 0.328 ± 0.4 | 0.679 ± 0.6 | 0.024 ± 0.0057 | 0.153 ± 0.2 | 0.0172 ± 0.0017 | 0.0179 ± 0.006 | – | – | 1.02 ± 0.03 | 0.9786 ± 0.0019 | – | –
COc1cccc2c1C(=O)c1c(O)c3c(c(O)c1C2=O)C[C@@](O)(C(=O)CO)C[C@@H]3O[C@H]1C[C@H](N)[C@@H](O)[C@H](C)O1 [Epirubicin Hydrochloride] | 0.89 ± 0.23 | 0.967 ± 0.084 | 0.596 ± 0.37 | 0.902 ± 0.42 | 0.304 ± 0.39 | 0.55 ± 0.72 | 0.0326 ± 0.0056 | 0.164 ± 0.21 | 0.0161 ± 0.003 | 0.0225 ± 0.011 | – | – | 1.02 ± 0.021 | 1.04 ± 0.05 | – | –
COc1cc([C@@H]2c3cc4c(cc3[C@@H](O[C@@H]3O[C@@H]5CO[C@@H](C)O[C@H]5[C@H](O)[C@H]3O)[C@H]3COC(=O)[C@H]23)OCO4)cc(OC)c1O [Etoposide (VP-16)] | 0.993 ± 0.062 | 0.992 ± 0.036 | 0.913 ± 0.1 | 0.985 ± 0.015 | 0.737 ± 0.18 | 0.978 ± 0.18 | 0.477 ± 0.24 | 0.842 ± 0.39 | 0.165 ± 0.14 | 0.35 ± 0.33 | 0.0411 ± 0.033 | 0.0423 ± 0.033 | – | – | – | –
O=c1[nH]c(=O)n([C@H]2C[C@H](O)[C@@H](CO)O2)cc1F [Floxuridine] | 1 ± 0.05 | 1.1 ± 0.054 | 0.961 ± 0.15 | 0.998 ± 0.019 | 1.01 ± 0.13 | 0.952 ± 0.19 | 0.858 ± 0.19 | 0.874 ± 0.31 | 0.76 ± 0.43 | 0.786 ± 0.51 | – | – | 1.04 ± 0.047 | 1.2 ± 0.21 | – | –
Nc1nc(F)nc2c1ncn2[C@@H]1O[C@H](COP(=O)(O)O)[C@@H](O)[C@@H]1O [Fludarabine Phosphate (Fludara)] | 1.0709 ± 0.00057 | 1.04 ± 0.014 | 1.03 ± 0.061 | 1.04 ± 0.012 | 1.02 ± 0.12 | 1.0367 ± 0.00023 | 1.08 ± 0.024 | 1.07 ± 0.029 | 1.06 ± 0.046 | 1.15 ± 0.028 | 1.07 ± 0.027 | 1.16 ± 0.12 | – | – | – | –
O=c1[nH]c(=O)n(C2CCCO2)cc1F (configuration not stated) [Ftorafur (Tegafur)] | 0.985 ± 0.063 | 0.953 ± 0.027 | 1 ± 0.057 | 1.01 ± 0.014 | 1.02 ± 0.016 | 1.01 ± 0.026 | 1 ± 0.016 | 1.01 ± 0.028 | 1.013 ± 0.0085 | 1.03 ± 0.014 | – | – | 0.991 ± 0.11 | 0.978 ± 0.05 | – | –
Nc1ccn([C@@H]2O[C@H](CO)[C@@H](O)C2(F)F)c(=O)n1 [Gemcitabine HCl (Gemzar)] | 0.0446 ± 0.0085 | 0.0383 ± 0.016 | 0.0501 ± 0.015 | 0.0767 ± 0.053 | 0.0439 ± 0.017 | 0.065 ± 0.04 | 0.0472 ± 0.028 | 0.0514 ± 0.028 | – | – | – | – | 0.0596 ± 0.017 | 0.0573 ± 0.021 | – | –
CCS(=O)(=O)Nc1ccc2c(c1)/C(=C(/Nc1ccc(CN3CCCCC3)cc1)c1ccccc1)C(=O)N2 [Hesperadin] | 0.981 ± 0.038 | 0.9913 ± 0.0085 | 0.85 ± 0.077 | 0.995 ± 0.26 | 0.79 ± 0.011 | 0.966 ± 0.21 | 0.696 ± 0.026 | 0.838 ± 0.12 | – | – | – | – | 1.038 ± 0.0037 | 1.02 ± 0.011 | – | –
NC(=O)c1ccc(I)c([N+](=O)[O-])c1 [Iniparib (BSI-201)] | – | – | 1.01 ± 0.022 | 0.996 ± 0.031 | 1.06 ± 0.0055 | 0.981 ± 0.077 | 1.03 ± 0.045 | 0.951 ± 0.08 | 0.996 ± 0.028 | 0.969 ± 0.12 | 1.02 ± 0.062 | 0.93 ± 0.17 | – | – | 0.839 ± 0.094 | 0.92546 ± 0.00092
O=C1c2c(O)ccc(O)c2C(=O)c2c(NCCNCCO)ccc(NCCNCCO)c21 [Mitoxantrone Hydrochloride] | 0.556 ± 0.33 | 0.88 ± 0.18 | 0.292 ± 0.31 | 0.858 ± 0.57 | 0.124 ± 0.13 | 0.583 ± 0.73 | 0.0246 ± 0.0088 | 0.312 ± 0.42 | – | – | – | – | 0.834 ± 0.17 | 0.952 ± 0.011 | – | –
O=c1cc(N2CCOCC2)oc2c(-c3cccc4c3sc3ccccc34)cccc12 [NU7441] | 0.982 ± 0.06 | 0.9779 ± 0.0026 | 0.953 ± 0.032 | 0.963 ± 0.011 | 1.02 ± 0.073 | 0.9893 ± 0.0052 | 0.972 ± 0.013 | 1.019 ± 0.0044 | 0.918 ± 0.066 | 0.992 ± 0.14 | 0.834 ± 0.15 | 0.935 ± 0.37 | – | – | – | –
COc1ccc(C2=N[C@@H](c3ccc(Cl)cc3)[C@@H](c3ccc(Cl)cc3)N2C(=O)N2CCNC(=O)C2)c(OC(C)C)c1 [Nutlin-3] | 0.977 ± 0.022 | 0.944 ± 0.013 | 0.981 ± 0.057 | 0.9784 ± 0.0054 | 0.983 ± 0.047 | 1.029 ± 0.0079 | 0.9903 ± 0.0028 | 0.956 ± 0.0068 | 0.965 ± 0.026 | 1.035 ± 0.0094 | 0.9631 ± 0.0059 | 1.06 ± 0.096 | – | – | – | –
COC1=CC(c2cc3ccccc3[nH]2)=N/C1=C\c1[nH]c(C)cc1C [Obatoclax mesylate] | 1.07 ± 0.017 | 1.01 ± 0.056 | 0.872 ± 0.087 | 1.05 ± 0.19 | 0.56 ± 0.044 | 0.728 ± 0.13 | 0.307 ± 0.026 | 0.415 ± 0.13 | 0.25 ± 0.017 | 0.344 ± 0.14 | 0.141 ± 0.062 | 0.0791 ± 0.041 | – | – | – | –
